Experimental findings from patent publication US20190240344A1, “FUNCTIONAL RNA AND SMALL-MOLECULE DRUG THERAPEUTIC COMPLEXES AND NANOPARTICLE DELIVERY VEHICLES” (EOS BIOSCIENCES, INC., priority 2016, published 2019) are described below.

The structures appear in SMILES notation.

Experiment [1] concerns 4T1-Fluc-Neo/eGFP-Puro cells (mouse mammary carcinoma cells). Kind of experiment: Cell viability of 4T1-Fluc-Neo/eGFP-Puro cells after transfection (Celltiter Glo, ATP). The class given is cell-based. As to conditions: three doses, 24 hours, RNAiMax lipofectamine carrier (doxorubicin alone without lipofectamine). Here is the method: To measure the effect of the complexes on cell viability, the formed complexes were transfected into 4T1-Fluc-Neo/eGFP-Puro cells (mouse mammary carcinoma cells stably expressing FLuc and eGFP). Approximately 10,000 cells per well were plated in 96-well plates, maintained in RPMI 1640 medium with […], fetal bovine serum, 100 U/mL penicillin, 100 μg/mL streptomycin at 37° C. under 5% CO2. After 24 hours, the culture media was replaced with Opti-MEM I reduced serum medium (Invitrogen Life Technologies). RNAiMax lipofectamine (Invitrogen Life Technologies) was used as a carrier for siScrm2, dox:siScrm2, siRNA3, or dox:siRNA3 delivery. Doxorubicin was administered to the control sample without the lipofectamine. Three hours following transfection, the medium in each sample was replaced with complete culture media. After 24 hours, relative cell viability was determined by quantifying ATP using Celltiter Glo Luminescent Cell Viability Kit (Promega), according to the manufacturer's instructions. Experiments were conducted in triplicate.

For experiment [2], the system named is JIMT1 cells (trastuzumb-resistant human breast cancer). Kind of experiment: Cell viability of JIMT1 cells after transfection (Celltiter Glo, ATP). The class given is cell-based. The settings on record: three doses, 24, 48, 72 hours, RNAiMax lipofectamine carrier (doxorubicin alone without lipofectamine). The method, then:
To measure the effect of the complexes on cell viability, the formed complexes were transfected into JIMT1 cells (trastuzumb-resistant human breast cancer). Approximately 10,000 cells per well were plated in 96-well plates, maintained in RPMI 1640 medium with […] fetal bovine serum, 100 U/mL penicillin, 100 μg/mL streptomycin at 37° C. under 5% CO2. After 24 hours, the culture media was replaced with Opti-MEM I reduced serum medium (Invitrogen Life Technologies). RNAiMax lipofectamine (Invitrogen Life Technologies) was used as a carrier for siRNA, Dox:siRNA complexes, and the Dox:DNA oligo complex delivery. Doxorubicin was administered to the control sample without the lipofectamine. Three hours following transfection, the medium in each sample was replaced with complete culture media. After 24, 48, or 72 hours, relative cell viability was determined by quantifying ATP using Celltiter Glo Luminescent Cell Viability Kit (Promega), according to the manufacturer's instructions. Experiments were conducted in triplicate. Results are shown in FIG. 5A (24 hours), 5B (48 hours), and SC (72 hours).

Consider `COc1cccc2c1C(=O)c1c(O)c3c(c(O)c1C2=O)C[C@@](O)(C(=O)CO)C[C@@H]3O[C@H]1C[C@H](N)[C@H](O)[C@H](C)O1` [doxorubicin], for which the relative cell viability result in experiment [1] and in experiment [2] was “dose-dependent decrease in cell viability” throughout.
